Test results reported in PMC12298827, “Subchronic Toxicities of Four Per- and Polyfluoroalkyl Substances (PFASs) by Oral Exposure in Sprague–Dawley Rats” (Toxics, 2025).

Test system: male and female Sprague–Dawley rats
Experiment: 90-day subchronic oral gavage toxicity study
Assay type: in vivo, rat
Description: Subchronic (90-day) studies were performed in accordance with current U.S. EPA’s Toxic Substances Control Act Good Laboratory Practice (GLP) Standards, with the following two general exceptions to the GLP guidelines: Analysis of the dose formulations was conducted according to RTI-approved Standard Operating Procedures, and corn oil (the vehicle) was not characterized (certificate of analysis from the vendor is available in the appendices to the final reports). Male and female Sprague–Dawley rats (five dose levels plus a control, n = 10/sex/dose group, corn oil vehicle dose volume of 3 mL/kg; oral gavage) were used in these studies, and the rats were euthanized on SD 91. The dose levels for PFHI were 0, 12.5, 25, 50, 100, and 200 mg/kg-day. The dose levels for MHFPK were 0, 18.8, 37.5, 75, 150, and 300 mg/kg-day. The dose levels for PFNAC were 0, 0.1, 0.3, 1.0, 3.0, and 10 mg/kg-day for male rats and 0, 0.3, 1.0, 3.0, 10, and 30 mg/kg-day for female rats. For CTFPA, the dose levels were 0, 1.9, 3.8. 7.5, 15, and 30 mg/kg-day for male rats and 0, 6.3, 12.5, 25, 50, and 100 mg/kg-day for female rats. For each PFAS, three batches of dosing solution were prepared. The time between the batch preparation of the dosing solutions ranged between 29 and 39 days. Blood samples were collected from all the rats at termination for serum chemistry, hematology, coagulation, and the analysis of the parent PFAS chemical in the plasma. In vivo data collection and further detail on the endpoints examined postmortem are described below.
The rats were observed twice daily for morbidity and mortality throughout the study period. At least once prior to randomization to test groups and weekly thereafter, the rats were physically examined, and bodyweights were obtained. Feed consumption was quantified weekly starting on SD 1.
Neurotoxicity was evaluated using the functional observational battery (FOB) and measuring locomotor activity (LMA) 2–4 h post dosing on SDs 78–80 and 80–84, respectively. For both the 14- and 90-day studies, an ophthalmologic examination was conducted prior to randomization and near the end of the study, using indirect ophthalmoscopy and slit–lamp biomicroscopy (as needed) after the administration of a mydriatic solution.
Hematology, biochemistry, and coagulation endpoints were measured at the termination of the study. A Siemens Advia 2120i hematology analyzer (Siemens Healthineers, Erlangen, Germany) was used to measure (or calculate) the parameters related to the complete blood count, leukocyte differential count, and reticulocyte count. The hematology parameters are listed and described in Table 2. The prothrombin time […] and activated partial thromboplastin time (APTT) were measured using an Instrumentation Laboratory (Bedford, MA, USA) ACL Elite Pro coagulation analyzer (laser–nephelometric centrifugal method).
At necropsy, the rats were visually examined for external abnormalities and organ weights (absolute and relative to the BW and brain weight), which were recorded (paired organs weighed together). The tissues were preserved in 10% neutral buffered formalin (NBF), except for the ocular tissues, testes, and epididymides, which were preserved in modified Davidson’s fixative and later transferred to 10% NBF. Bone marrow smears were prepared from the femurs, and the slides were air-dried, fixed in methanol, stained, and stored at room temperature for possible future evaluation. The preserved tissues were embedded in paraffin, sectioned, stained with hematoxylin and eosin, and examined by a board-certified veterinary pathologist.
Statistical analysis was performed using Provantis™ Version 10 or greater (Instem LSS, Limited; Stone, Staffordshire, UK). Differences among the treatment groups compared to the control were evaluated using one-way analysis of variance (ANOVA) if the underlying assumptions of a normal distribution (Shapiro–Wilk test) and the homogeneity of the variance (Levene’s test) were satisfied. […]

FC(F)(F)C(F)(F)C(F)(F)C(F)(F)CCI [PFHI, 1H,1H,2H,2H-Perfluorohexyl iodide]
Liver/Brain Weight (female, 200 mg/kg-day): 481%
MPV (female, 200 mg/kg-day): 7.68 ± 0.44 fL
PT (female, 200 mg/kg-day): 13.98 s
Total BW change (female, 200 mg/kg-day): 108.57 g
Total Food Consumed (female, 200 mg/kg-day): 1566 g
BMD10, absolute kidney weight increase (male): 122 mg/kg-day
BMD10, relative kidney weight increase (male): 69.7 mg/kg-day
BMDL, absolute kidney weight increase (male): 83.8 mg/kg-day
BMDL, relative kidney weight increase (male): 56.6 mg/kg-day
LOEL, absolute kidney weight increase (male): 200 mg/kg-day
LOEL, absolute liver weight increase (male): 100 mg/kg-day
LOEL, relative kidney weight increase (male): 100 mg/kg-day
LOEL, relative liver weight increase (male): 25 mg/kg-day
NOEL, absolute kidney weight increase (male): 100 mg/kg-day
NOEL, absolute liver weight increase (male): 50 mg/kg-day
NOEL, relative kidney weight increase (male): 50 mg/kg-day
NOEL, relative liver weight increase (male): 12.5 mg/kg-day
% BW Gain (male, 12.5 mg/kg-day): 114.45%
% Diff, % BW Gain (male, 12.5 mg/kg-day): 0.87%
% Diff, Total BW change (male, 12.5 mg/kg-day): -1.78%
% Diff, Total Food Consumed (male, 12.5 mg/kg-day): -6.69%
A/G (male, 12.5 mg/kg-day): 0.91±0.04 ratio
ALB (male, 12.5 mg/kg-day): 3.42 ± 0.25 g/dL
ALPi (male, 12.5 mg/kg-day): 102.9±14.1 U/L
APTT (male, 12.5 mg/kg-day): 23.37 s
BUN (male, 12.5 mg/kg-day): 14.8 ± 2.0 mg/dL
CHOL (male, 12.5 mg/kg-day): 87.5 ± 9.2 mg/dL
GLOB (male, 12.5 mg/kg-day): 3.77 ± 0.18 g/dL
GLUC (male, 12.5 mg/kg-day): 199.1 ± 29.5 mg/dL
HCT (male, 12.5 mg/kg-day): 51.12±1.63%
HGB (male, 12.5 mg/kg-day): 15.92 ± 0.40 g/dL
Kidney Weight (male, 12.5 mg/kg-day): 3.04 g
Kidney/Body Weight (male, 12.5 mg/kg-day): 0.51%
Kidney/Brain Weight (male, 12.5 mg/kg-day): 140%
Liver Weight (male, 12.5 mg/kg-day): 15.35 g
Liver/Body Weight (male, 12.5 mg/kg-day): 2.59%
Liver/Brain Weight (male, 12.5 mg/kg-day): 706%
MPV (male, 12.5 mg/kg-day): 7.20 ± 0.26 fL
PT (male, 12.5 mg/kg-day): 14.91 s
Total BW change (male, 12.5 mg/kg-day): 319.83 g
Total Food Consumed (male, 12.5 mg/kg-day): 2217 g
% BW Gain (male, 25 mg/kg-day): 112.88%
% Diff, % BW Gain (male, 25 mg/kg-day): -0.52%
% Diff, Total BW change (male, 25 mg/kg-day): -1.33%
% Diff, Total Food Consumed (male, 25 mg/kg-day): -4.60%
A/G (male, 25 mg/kg-day): 0.88±0.10 ratio
ALB (male, 25 mg/kg-day): 3.35 ± 0.14 g/dL
ALPi (male, 25 mg/kg-day): 112.3±29.5 U/L
APTT (male, 25 mg/kg-day): 29.06 s
BUN (male, 25 mg/kg-day): 15.3 ± 2.1 mg/dL
CHOL (male, 25 mg/kg-day): 101.5 ± 15.8 mg/dL
GLOB (male, 25 mg/kg-day): 3.84 ± 0.36 g/dL
GLUC (male, 25 mg/kg-day): 204.5 ± 34.6 mg/dL
HCT (male, 25 mg/kg-day): 50.59±1.92%
HGB (male, 25 mg/kg-day): 15.67 ± 0.55 g/dL
Kidney Weight (male, 25 mg/kg-day): 3.20 g
Kidney/Body Weight (male, 25 mg/kg-day): 0.54%
Kidney/Brain Weight (male, 25 mg/kg-day): 147%
Liver Weight (male, 25 mg/kg-day): 16.98 g
Liver/Body Weight (male, 25 mg/kg-day): 2.85%
Liver/Brain Weight (male, 25 mg/kg-day): 780%
MPV (male, 25 mg/kg-day): 7.13 ± 0.21 fL
PT (male, 25 mg/kg-day): 14.69 s
Total BW change (male, 25 mg/kg-day): 321.29 g
Total Food Consumed (male, 25 mg/kg-day): 2266 g
% BW Gain (male, 50 mg/kg-day): 108.23%
% Diff, % BW Gain (male, 50 mg/kg-day): -4.61%
% Diff, Total BW change (male, 50 mg/kg-day): -5.67%
% Diff, Total Food Consumed (male, 50 mg/kg-day): -6.15%
A/G (male, 50 mg/kg-day): 0.91±0.04 ratio
ALB (male, 50 mg/kg-day): 3.41 ± 0.12 g/dL
ALPi (male, 50 mg/kg-day): 103.3±31.6 U/L
APTT (male, 50 mg/kg-day): 20.03 s
BUN (male, 50 mg/kg-day): 15.4 ± 1.8 mg/dL
CHOL (male, 50 mg/kg-day): 100.2 ± 18.8 mg/dL
GLOB (male, 50 mg/kg-day): 3.74 ± 0.13 g/dL
GLUC (male, 50 mg/kg-day): 196.8 ± 40.7 mg/dL
HCT (male, 50 mg/kg-day): 49.78±1.69%
HGB (male, 50 mg/kg-day): 15.53 ± 0.59 g/dL
Kidney Weight (male, 50 mg/kg-day): 3.25 g
Kidney/Body Weight (male, 50 mg/kg-day): 0.56%
Kidney/Brain Weight (male, 50 mg/kg-day): 143.1%
Liver Weight (male, 50 mg/kg-day): 17.05 g
Liver/Body Weight (male, 50 mg/kg-day): 2.92%
Liver/Brain Weight (male, 50 mg/kg-day): 754%
MPV (male, 50 mg/kg-day): 7.30 ± 0.36 fL
PT (male, 50 mg/kg-day): 15.14 s
Total BW change (male, 50 mg/kg-day): 307.16 g
Total Food Consumed (male, 50 mg/kg-day): 2229 g
% BW Gain (male, 100 mg/kg-day): 106.43%
% Diff, % BW Gain (male, 100 mg/kg-day): -6.20%
% Diff, Total BW change (male, 100 mg/kg-day): -9.44%
% Diff, Total Food Consumed (male, 100 mg/kg-day): -5.67%
A/G (male, 100 mg/kg-day): 0.87±0.20 ratio
ALB (male, 100 mg/kg-day): 3.34 ± 0.53 g/dL
ALPi (male, 100 mg/kg-day): 103.2±19.1 U/L
APTT (male, 100 mg/kg-day): 26.73 s
BUN (male, 100 mg/kg-day): 15.7 ± 3.2 mg/dL
CHOL (male, 100 mg/kg-day): 112.4 ± 25.0 mg/dL
GLOB (male, 100 mg/kg-day): 3.97 ± 0.63 g/dL
GLUC (male, 100 mg/kg-day): 171.8 ± 39.0 mg/dL
HCT (male, 100 mg/kg-day): 50.60±2.40%
HGB (male, 100 mg/kg-day): 15.71 ± 0.74 g/dL
Kidney Weight (male, 100 mg/kg-day): 3.38 g
Kidney/Body Weight (male, 100 mg/kg-day): 0.60%
Kidney/Brain Weight (male, 100 mg/kg-day): 156%
Liver Weight (male, 100 mg/kg-day): 18.32 g
Liver/Body Weight (male, 100 mg/kg-day): 3.24%
Liver/Brain Weight (male, 100 mg/kg-day): 843%
MPV (male, 100 mg/kg-day): 7.22 ± 0.38 fL
PT (male, 100 mg/kg-day): 15.16 s
Total BW change (male, 100 mg/kg-day): 294.89 g
Total Food Consumed (male, 100 mg/kg-day): 2241 g
% BW Gain (male, 200 mg/kg-day): 100.73%
% Diff, % BW Gain (male, 200 mg/kg-day): -11.23%
% Diff, Total BW change (male, 200 mg/kg-day): -14.29%
% Diff, Total Food Consumed (male, 200 mg/kg-day): -8.27%
A/G (male, 200 mg/kg-day): 0.91±0.04 ratio
ALB (male, 200 mg/kg-day): 3.55 ± 0.21 g/dL
ALPi (male, 200 mg/kg-day): 117.5±29.4 U/L
APTT (male, 200 mg/kg-day): 25.80 s
BUN (male, 200 mg/kg-day): 16.5 ± 2.0 mg/dL
CHOL (male, 200 mg/kg-day): 149.1 ± 27.7 mg/dL
GLOB (male, 200 mg/kg-day): 3.92 ± 0.23 g/dL
GLUC (male, 200 mg/kg-day): 163.2 ± 18.4 mg/dL
HCT (male, 200 mg/kg-day): 47.32±1.57%
HGB (male, 200 mg/kg-day): 14.88 ± 0.44 g/dL
Kidney Weight (male, 200 mg/kg-day): 3.60 g
Kidney/Body Weight (male, 200 mg/kg-day): 0.66%
Kidney/Brain Weight (male, 200 mg/kg-day): 168%
Liver Weight (male, 200 mg/kg-day): 20.17 g
Liver/Body Weight (male, 200 mg/kg-day): 3.70%
Liver/Brain Weight (male, 200 mg/kg-day): 944%
MPV (male, 200 mg/kg-day): 7.33 ± 0.31 fL
PT (male, 200 mg/kg-day): 15.32 s
Total BW change (male, 200 mg/kg-day): 279.08 g
Total Food Consumed (male, 200 mg/kg-day): 2179 g
